Results published in ChEMBL document CHEMBL1142425, “Bromophenols from the marine red alga Polysiphonia urceolata with DPPH radical scavenging activity” (J Nat Prod, 2008).

Assay: DPPH radical scavenging activity
Format: functional

Compared with `O=Cc1cc(Br)c(O)c(Br)c1`, `O=Cc1cc(O)c(O)c(Br)c1` is 1.8-fold lower in IC50: 35.8 µM for the first, 20.3 µM for the second.

`Oc1cc2c(c(Br)c1O)COCc1cc(O)c(O)c(Br)c1-2` and `Oc1cc2c(c(Br)c1O)-c1c(cc(Br)c(O)c1O)CC2` are within 1.5-fold of each other in IC50: 8.1 µM for the first, 6.1 µM for the second.

First: Oc1cc2c(cc1O)-c1c(cc(Br)c(O)c1O)CC2
Second: CO[C@@H]1Oc2c(O)c(Br)cc3c2-c2c1cc(Br)c(O)c2O[C@H]3OC [URCEOLATOL]
The IC50 of the first is 2.2-fold lower: 6.8 µM for the first, 15.1 µM for the second.

`Cc1cc(C(C)(C)C)c(O)c(C(C)(C)C)c1` [BUTYLATED HYDROXYTOLUENE] gave an IC50 of 83.8 µM.
